Assays:
Type in all cases: cell-based, human
[1] = test system: NK1R (neurokinin 1 receptor) gene; assay: Gene expression assay by real-time PCR (NK1R) in melanocytes; settings: melanocytes (KaMC), 2 nM substance P, 5 days
Description: (§1) Melanocytes (KaMC; KCTC 12015BP) deposited in the Korean Collection for Type Culture (KCTC) were cultured in M-254 medium (Gibco BRL, NY, USA) supplemented with Human Melanocyte Growth Supplement (HMGS; Gibco BRL, NY, USA) on a 6-well plate, while changing the medium every other day, in a 5% CO2 incubator at 37° C. until the cells occupied 95% of the plate area (95% confluence). […] The cells not treated with substance P or the alpine skullcap (Scutellaria alpina) extract of Example 1 were used as a control group. After removing the medium form the melanocytes cultured on the 6-well plate, the cells were washed 2 times with cold phosphate-buffered saline (PBS) and the remaining water was completely removed. […] 1 μL of the RNA was quantified using Synergy II (Biotek, USA). […] After adding 10 μL of Taqman Gene Expression Master Mix (Life Technologies, USA) and 1 μL of Assays-on-DemandTM (Life Technologies, USA) of NK1R (ACCESSION: NM_001058) and EDN1 (ACCESSION: NM_001168319) genes to 9 μL of the diluted cDNA, the expression of the genes was analyzed by relative quantification using 7500 Fast Real-Time PCR (Life Technologies, USA) with glyceraldehyde 3-phosphate dehydrogenase (GAPDH, ACCESSION: NM001256799) as a control gene. […]

[2] = test system: EDN1 (endothelin 1) gene; assay: Gene expression assay by real-time PCR (EDN1) in melanocytes; settings: melanocytes (KaMC), 2 nM substance P, 5 days
Description: as §1

[3] = test system: endothelin 1 (EDN1); assay: Endothelin 1 ELISA assay of culture medium of treated melanocytes; settings: melanocytes (KaMC), 2 nM substance P
Description: When the density of the melanocytes on the 6-well plate reached about 80% (˜80% confluence), they were incubated for a total of 5 days with 2 nM of stress-inducing substance P (Bachem Fechemikalien, Bubendorf, Switzerland) or the alpine skullcap (Scutellaria alpina) extract of Example 1 of different concentrations (0, 0.1, 1, 2 and 5 ppm). The cells not treated with substance P or the alpine skullcap (Scutellaria alpina) extract of Example 1 were used as a control group.
The culture medium of the cells treated with the extract in (2) of Test Example 1 were recovered and the amount of endothelin 1 (EDN1) comprised in the medium was measured at 450 nm using the human total endothelin ELISA kit (MyBioSource, USA).
Endothelin content (%)=(Absorbance/Total protein)×100 [Equation 1]

CSCC[C@H](NC(=O)[C@H](CC(C)C)NC(=O)CNC(=O)[C@H](Cc1ccccc1)NC(=O)[C@H](Cc1ccccc1)NC(=O)[C@H](CCC(N)=O)NC(=O)[C@H](CCC(N)=O)NC(=O)[C@@H]1CCCN1C(=O)[C@H](CCCCN)NC(=O)[C@@H]1CCCN1C(=O)[C@@H](N)CCCN=C(N)N)C(N)=O [substance P]
expression of the NK1R gene (relative quantification vs GAPDH, control group = 1) [1]: 3.8 | expression of the EDN1 gene (relative quantification vs GAPDH, control group = 1) [2]: 3.3 | content of endothelin 1 (Absorbance/Total protein x 100, control group = 100%) [3]: 124%
